Reference: patent US8187831B2, “Determination of ions using ion-sensitive enzymes” (General Atomics, priority 2003, dated 2012)
Where two headings read alike, the source gives them in different places.

What was measured:
[1] = molecular target: T1, chimeric 3′(2′),5′-bisphosphate nucleotidase (Saccharomyces cerevisiae, UniProt P32179); assay: biochemical; set-up: species or system Saccharomyces cerevisaie
T1 construct: His6 (C)
From the text: (§1) Assay Principle. […] Through enzymatic coupling, the phosphatase substrate, adenosine 3′,5′-bisphosphate (PAP) was converted to hypoxanthine by a series of enzymatic reactions to generate uric acid and hydrogen peroxide (H2O2). The H2O2 generated reacted with N-Ethyl-N-(2-hydroxy-3-sulfopropyl)-3-m-toluidine (EHSPT) and 4-aminoantipyrine (4-AA) in the presence of peroxidase (POD) to form a quinone dye which had maximal absorbance at 556 nm. The rate of the quinine dye formation was inversely proportion to the concentration of lithium in serum samples. The enzymatic coupling reaction scheme is shown below in Table 6.
Key Assay Characteristics. The lithium enzymatic assay was a two reagent (R1 and R2) based kinetic assay system. The results were obtained in 10 min by measuring absorbance at 550 nm. No off line pretreatment was needed.
(§2) Assay Procedure. • 1. Reconstituted R1 and R2 reagents as described in Reagent Preparation section and kept the reconstituted R1 and R2 reagents on ice bath. • 2. In a cuvette, mixed 180 μL of Reagent R1 and 5 μL of serum sample and incubated at 37° C. for 1 minute and then added 85 μL of Reagent 2. • 3. Read absorbance (550 nm) at 6 minutes as A1. Incubated for 3 more minutes and read the absorbance at 9 minute as A2. • 4. Calculated ΔA=A2−A1
Calibration and Quality Control. The assay was calibrated daily using the enclosed low and high lithium standards. The calibration curve was constructed by plotting the ΔA values of the standards against the corresponding lithium concentrations. The lithium concentration of the sample was read from the calibration curve. The assay should be calibrated daily.

[2] = molecular target: T1, chimeric 3′(2′),5′-bisphosphate nucleotidase; type: biochemical, Saccharomyces cerevisaie
From the text: as §1, with “(H2O2).” for “(H2O2). The”, “reacts” for “reacted”, “sodium” for “lithium”, “3:” for “6.”
Key Assay Characteristics. The sodium enzymatic assay was a two reagent (R1 and R2) based kinetic assay system. The results were obtained in 10 min by measuring absorbance at 550 nm. No off line pretreatment was needed.
as §2, with “and 20” for “and 5”, “at 3 min (2 min after addition of Reagent 2)” for “at 6 minutes”, “for a further 7 min” for “for 3 more minutes”, “at 10 min” for “at 9 minute”
Calibration. This assay was calibrated daily using the enclosed low and high sodium standards. A calibration curve was constructed by plotting the ΔA values of the standards against the corresponding sodium concentrations. The sodium concentration of the sample was read from the calibration curve.

T1 sequence (P32179 other isoform, or with tags, fused parts or gaps): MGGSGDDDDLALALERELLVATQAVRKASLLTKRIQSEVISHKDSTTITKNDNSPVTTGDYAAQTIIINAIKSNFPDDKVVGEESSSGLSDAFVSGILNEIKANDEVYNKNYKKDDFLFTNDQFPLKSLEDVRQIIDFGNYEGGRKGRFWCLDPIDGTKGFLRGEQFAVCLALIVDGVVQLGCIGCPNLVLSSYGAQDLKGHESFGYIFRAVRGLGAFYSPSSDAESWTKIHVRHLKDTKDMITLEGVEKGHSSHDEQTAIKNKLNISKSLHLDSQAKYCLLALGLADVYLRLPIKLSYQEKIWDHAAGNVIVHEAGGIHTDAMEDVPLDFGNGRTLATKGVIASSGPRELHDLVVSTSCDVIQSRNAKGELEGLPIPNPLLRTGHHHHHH

In the case of `[Fe+3]` [Fe^3+], the “Interference with lithium assay” value ([1]; substance at 0.25 mM) is reported as “not interfered”.

With `[K+]` [K^+] the “Interference with lithium assay” value [1] was “not interfered”.

With `[Zn+2]` [Zn^2+] the “Interference with lithium assay” value ([1]; substance at 0.25 mM) was “not interfered”.

With `[Ca+2]` [Ca^2+] the “Interference with lithium assay” value ([1]; substance at 4.0 mM) was “not interfered”.

With `[Cl][Fe]([Cl])[Cl]` [FeCl3] the “Interference with sodium assay” value ([2]; substance at 0.25 mM) was “not interfered”.

In the case of `[Cl-].[Na+]` [NaCl], the “Interference with sodium assay” value [2] is reported as “not interfered”.

In the case of `Cl.N` [NH4Cl], the “Interference with sodium assay” value [2] is reported as “not interfered”.

For `[Cl][Cu][Cl]` [CuCl2], the “Interference with sodium assay” value ([2]; substance at 0.25 mM) was “not interfered”.

In the case of `[Cu+2]` [Cu^2+], the “Interference with lithium assay” value ([1]; substance at 0.25 mM) is reported as “not interfered”.

Work on `[Li]` [lithium, reference compound] yielded an IC50 ([1]; read-out: IC50 (nucleotidase activity sensitive to lithium concentration)) of 0.1 mM.

With `[Mg+2]` [Mg^2+] the “Interference with lithium assay” value ([1]; substance at 2.0 mM) was “not interfered”.

For `[Ca+2].[Cl-].[Cl-]` [CaCl2], the “Interference with sodium assay” value ([2]; substance at 5 mM) was “not interfered”.

`N` [NH4^+] was tested, and the “Interference with lithium assay” value ([1]; substance at 0.5 mM) was “not interfered”.

For `O=C1O[C@H]([C@@H](O)CO)C(O)=C1O` [ascorbic acid], the “Interference with lithium assay” value ([1]; substance at 5.0 mM) was “not interfered” and the “Interference with sodium assay” value ([2]; substance at 5 mM) was “not interfered”.

In the case of `[Cl-].[K+]` [KCl], the “Interference with sodium assay” value ([2]; substance at 10 mM) is reported as “not interfered”.

In the case of `[Cl-].[Cl-].[Zn+2]` [ZnCl2], the “Interference with sodium assay” value ([2]; substance at 0.25 mM) is reported as “not interfered”.

For KPi, the “Interference with sodium assay” value ([2]; substance at 1.5 mM) was “not interfered”.

For triglyceride, the “Interference with sodium assay” value ([2]; substance at 250 mg/dl) was “not interfered”.

`[Na+]` [sodium] was tested, and the “Interference with lithium assay” value ([1]; substance at 200 mM) was “not interfered” and the IC50 ([2]; read-out: IC50 (nucleotidase activity sensitive to sodium concentration)) was 20 mM.
